Reference: patent publication US20110054247A1, “METHODS FOR CLONING FERRETS AND TRANSGENIC FERRET MODELS FOR DISEASES” (UNIVERSITY OF IOWA RESEARCH FOUNDATION, priority 2009, published 2011)

Experiments:
[1] = tested on: CFTR-/- kits; assay: Oral UDCA therapy of CFTR-/- kits (neonatal clinical care, blood chemistries); format: in vivo, ferret; details: Golytely and antibiotics
Procedure: Neonatal clinical care of CFTR^−/− kits. Two treatment protocols were developed to enhance post-natal survival and reduce the risk of intestinal obstruction caused by MI. Both protocols included administering metronidazole (5 mg/kg in 100 uL of dextrose saline, s.c.) 4× daily beginning at the time of birth, and starving the animals for the first 3 hours after birth and then administering a 150-200 μL Golytely® gavage (Braintree Laboratories Inc.) using a fire polished microloader pipette tip (Eppendorf Inc.) (FIG. 27 for example of gavage tube components). The gavage was repeated every 6 hours up to three times, until meconium was passed. […] When CFTR^−/− kits were weaned at 5 weeks of age, they were fed a slurry of Elecare hydrated solid chow (Marshall Farms) 2× daily, mixed with 1 lipase Unit per 10 gram body weight of Viokase-V (the amount of food eaten with each feeding was recorded for these calculations).
Blood chemistries. […] Mammalian Liver Profile rotors from Abaxis were used, and assessed plasma levels of: alkaline phosphatase (AP), alanine aminotransferase (ALT), bile acids (BA), total bilirubin (TBiI), total cholesterol (CHOL), gamma glutamyl transferase (GGT), and blood urea nitrogen (BUN). […]
For these reasons, it was determined whether oral UDCA therapy of CFTR^−/− kits might normalize liver function and improve nutrition. […]

[2] = tested on: submucosal glands of CFTR-/- tracheas; assay: Functional measurement of gland secretions in tracheal xenografts; parameters: species or system ferret; details: 30 minute stimulation
Procedure: Functional measurement of gland secretions in tracheal xenografts. Rates of mucous secretion from single submucosal glands were determined on excised CFTR^+/+, CFTR^+/−, and CFTR^−/− tracheal xenografts, as previously described in Joo et al. (2001), with modification to optimize xenograft viability. Xenografts were harvested and placed in minimal essential medium (MEM) with antibiotics, and shipped overnight at 4° C. from the University of Iowa to Stanford University. Tracheal xenografts were open along the posterior trachealis muscle, and dissected tracheal segments were mounted mucosal-side-up in a chamber without removing the cartilage at 4° C. […] Digital images of the spherical mucous bubbles under mineral oil were obtained at 5 minute intervals, based on which the secretory rates for individual glands was calculated using ImageJ software (NIH, MD). […] To confirm that differences in glandular secretory rates between CF and non-CF xenografts were not due to differences in gland size, we performed morphometric analysis on the samples analyzed. […] The unit length of the surface airway basal lamina and the glandular area were measured for each section using Metamorph software. […] On average about 75 photomicrographs were evaluated for each xenograft sample (N=5 for non-CF and N=6 for CF).

Structure (SMILES): C[C@H](CCC(=O)O)[C@H]1CC[C@H]2[C@@H]3[C@@H](O)C[C@@H]4C[C@H](O)CC[C@]4(C)[C@H]3CC[C@]12C [UDCA, ursodeoxycholic acid]
- survival of CFTR-/- kits that did not die of MI ([1]; 4 of 20 CFTR-/- kits treated with UDCA): 5 to 9 days
- number of kits that died of MI ([1]; among 20 CFTR-/- kits treated with UDCA): 16

Structure (SMILES): C[N+](C)(C)CCOC(N)=O [carbachol]
- reduction of fluid secretion from submucosal glands, CFTR-/- versus non-CF tracheas ([2]; secretion in response to 1 μM carbachol): reduced by half

Structure (SMILES): C=C[C@@]1(C)CC(=O)[C@]2(O)[C@@]3(C)[C@@H](O)CCC(C)(C)[C@@H]3[C@H](O)[C@H](OC(C)=O)[C@@]2(C)O1 [forskolin]
- reduction of fluid secretion from submucosal glands, CFTR-/- versus non-CF tracheas ([2]; secretion in response to 3 μM forskolin): 7.4 fold
